From patent publication US20230330051A1, “METHOD FOR MODULATING WEIGHT” (Yeda Research and Development Co. Ltd., priority 2020, published 2023)

Columns and labels:
Assay type in all cases: in vivo, C57BL/6J male mice
[1] = Weight change of naive HFD-consuming mice upon metabolite administration; settings: naive HFD-consuming 10-week-old C57bl male mice
From the text: Mice. Eight-weeks old C57BL/6J male mice were purchased from Harlan. All mice were maintained in the animal facility of the Weizmann Institute and acclimatized for two weeks before the initiation of experiments. Mice were fed on normal chow (NC) or switched to a high-fat diet (HFD, D12492, 60% kcal from fat, Research Diets)/ choline-deficient diet (CDD, rodent diet with 60 kcal % fat without added Choline) three days prior to the experimental starting point. […] For all experiments, the mice were assigned to each group based on their weight in order to create weight-matched groups and eliminate weight differences at the beginning of the experiments. […] Lean and fat mass was determined by nuclear magnetic resonance (NMR) using Bruker minispec LF50.mq7.5 MHZ live mice analyzer.
(§1) Data extraction and compound identification- raw data was extracted, peak-identified and QC processed using Metabolon's hardware and software. […] The cut was then closed with sterile surgical clips and the mice were carefully monitored for any signs of stress, bleeding, pain, or abnormal behavior. […]
Importantly, the predicted levels of biosynthetic enzymes (PICRUSTt2, P542-PWY) of the choline to betaine pathway and the pathway's measured intermediary levels (Choline to Betaine) were altered in actively smoking mice (FIG. 1D). […]

[2] = Smoking cessation-associated weight gain (SCWG) model in mice
From the text: Mice. Eight-weeks old C57BL/6J male mice were purchased from Harlan. All mice were maintained in the animal facility of the Weizmann Institute and acclimatized for two weeks before the initiation of experiments. Mice were fed on normal chow (NC) or switched to a high-fat diet (HFD, D12492, 60% kcal from fat, Research Diets)/ choline-deficient diet (CDD, rodent diet with 60 kcal % fat without added Choline) three days prior to the experimental starting point. […] For all experiments, the mice were assigned to each group based on their weight in order to create weight-matched groups and eliminate weight differences at the beginning of the experiments. Two weeks before experimental starting point, antibiotic-treated groups were given a combination of vancomycin (0.5 g/l), ampicillin (1 g/l), neomycin (1 g/l), and metronidazole (1 g/l) ad libitum in their drinking water, referred to as 4-way abx. […] Lean and fat mass was determined by nuclear magnetic resonance (NMR) using Bruker minispec LF50.mq7.5 MHZ live mice analyzer.
Cigarette Smoke Exposure. […] Smoke levels were measured at least twice daily. […]
as §1

[3] = Bomb calorimetry of stool (residual caloric content); settings: three weeks into DMG or PBS administration; inversely correlates with intestinal energy harvest
Procedure: Bomb calorimetry. Mice were transferred to a clean single housed cage, fecal samples collected and stored at −80° C. Before use, samples were dried with FreeZone 4.5-liter cascade benchtop freeze dry system (Labconco) for 24 hours. Gross energy content was measured using a water handling system (6510) and a bomb calorimeter (6200) by Parr Instrument Co. The calorimeter energy equivalent factor was determined using benzoic acid standards.

Compound | Weight gain under ACG consumption ([1]; 7500 mg N-Acetylglycine/kg diet, vs HFD-fed control) | SCWG upon ACG supplementation ([2]; non-antibiotics-treated smoking-cessation mice, HFD-ACG vs HFD) | Residual caloric content in stool [3] | Weight change upon DMG administration ([1]; osmotic pumps, 100 mg/kg/day, 21 days, vs vehicle (PBS)) | SCWG upon DMG supplementation ([2]; antibiotics-treated smoking-cessation HFD-fed mice, DMG via osmotic pumps started prior to cessation, vs vehicle)
CC(=O)NCC(=O)O [ACG, N-acetylglycine] | significantly lower weight gain | prevented SCWG | – | – | –
CN(C)CC(=O)O [DMG, N,N-Dimethylglycine] | – | – | lower residual calories | significant weight gain | restored SCWG
